Assay results reported in patent US10457672B2, “γ-diketones as Wnt/β-catenin signaling pathway activators” (Samumed, LLC, priority 2013, dated 2019).

Tested on: Wnt/β-catenin signaling pathway (Wnt-responsive SP5 promoter luciferase reporter in SW480 cells)
Test: Wnt reporter (SP5 promoter-firefly luciferase) activation assay in SW480 cells
Type: cell-based
Settings: Homo sapiens; SW480 colon cancer cells with SP5 promoter luciferase reporter; 24 h after compound addition; normalized to DMSO; concentration at half maximal activation
Method in brief: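 SW480 cells (APC-mutant) stably carrying an SP5-derived 8×TCF/LEF promoter–firefly luciferase reporter were treated with half-log compound dilutions from 3 or 10 µM top.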

| Compound | EC50 |
| --- | --- |
| Cc1ccc(C(=O)CCC(=O)c2ccc3[nH]ncc3c2)cc1 [Compound 503, 1-(1H-Indazol-5-yl)-4-(p-tolyl)butane-1,4-dione] | 487 nM |
| O=C(CCC(=O)c1ccccn1)c1ccc2[nH]ncc2c1 [Compound 507, 1-(1H-Indazol-5-yl)-4-(pyridin-2-yl)butane-1,4-dione] | 36 nM |
| O=C(CCC(=O)c1ccc2[nH]ncc2c1)c1ccccc1 [Compound 513, 1-(1H-Indazol-5-yl)-4-phenylbutane-1,4-dione] | 39 nM |
| O=C(CCC(=O)c1ccco1)c1ccc2[nH]ncc2c1 [Compound 515, 1-(Furan-2-yl)-4-(1H-indazol-5-yl)butane-1,4-dione] | 127 nM |
| Cc1ccccc1C(=O)CCC(=O)c1c[nH]c2ccccc12 [Compound 518, 1-(1H-Indol-3-yl)-4-(o-tolyl)butane-1,4-dione] | 646 nM |
| O=C(CCC(=O)c1c[nH]c2ccccc12)c1cccs1 [Compound 524, 1-(1H-Indol-3-yl)-4-(thiophen-2-yl)butane-1,4-dione] | 88 nM |
| Cc1ccccc1C(=O)CCC(=O)c1n[nH]c2ccccc12 [Compound 528, 1-(1H-Indazol-3-yl)-4-(o-tolyl)butane-1,4-dione] | 148 nM |
| Cc1cccc(C(=O)CCC(=O)c2n[nH]c3ccccc23)c1 [Compound 529, 1-(1H-Indazol-3-yl)-4-(m-tolyl)butane-1,4-dione] | 695 nM |
| O=C(CCC(=O)c1ccccc1F)c1ccccn1 [Compound 538, 1-(2-Fluorophenyl)-4-(pyridin-2-yl)butane-1,4-dione] | 63 nM |
| O=C(CCC(=O)c1ccccc1C(F)(F)F)c1ccccn1 [Compound 541, 1-(Pyridin-2-yl)-4-(2-(trifluoromethyl)phenyl)butane-1,4-dione] | 2810 nM |
| Cc1ccccc1C(=O)CCC(=O)c1ccccn1 [Compound 544, 1-(Pyridin-2-yl)-4-(o-tolyl)butane-1,4-dione] | 900 nM |
| COc1ccccc1C(=O)CCC(=O)c1ccccn1 [Compound 547, 1-(2-Methoxyphenyl)-4-(pyridin-2-yl)butane-1,4-dione] | > 10000 nM |
| O=C(CCC(=O)c1ccco1)c1ccccn1 [Compound 554, 1-(Furan-2-yl)-4-(pyridin-2-yl)butane-1,4-dione] | > 10000 nM |
| O=C(CCC(=O)c1ccccc1F)c1cccs1 [Compound 557, 1-(2-Fluorophenyl)-4-(thiophen-2-yl)butane-1,4-dione] | 26 nM |
| O=C(CCC(=O)c1ccccc1C(F)(F)F)c1cccs1 [Compound 559, 1-(Thiophen-2-yl)-4-(2-(trifluoromethyl)phenyl)butane-1,4-dione] | 340 nM |
| Cc1ccccc1C(=O)CCC(=O)c1cccs1 [Compound 560, 1-(Thiophen-2-yl)-4-(o-tolyl)butane-1,4-dione] | 55 nM |
| COc1ccccc1C(=O)CCC(=O)c1cccs1 [Compound 562, 1-(2-Methoxyphenyl)-4-(thiophen-2-yl)butane-1,4-dione] | 106 nM |
| O=C(CCC(=O)c1ncccc1F)c1ccc2c(c1)OCCO2 [Compound 569, 1-(2,3-Dihydrobenzo[b][1,4]dioxin-6-yl)-4-(3-fluoropyridin-2-yl) butane-1,4-dione] | 1.96 nM |
| O=C(CCC(=O)c1ncccc1C(F)(F)F)c1ccc2c(c1)OCCO2 [Compound 570, 1-(2,3-Dihydrobenzo[b][1,4]dioxin-6-yl)-4-(3-(trifluoromethyl)pyridin-2-yl)butane-1,4-dione] | 26 nM |
| O=C(CCC(=O)c1ncccn1)c1ccccc1 [Compound 718, 1-Phenyl-4-(pyrimidin-2-yl)butane-1,4-dione] | 681 nM |
| O=C(CCC(=O)c1ncccn1)c1ccc2c(c1)CCCC2 [Compound 737, 1-(Pyrimidin-2-yl)-4-(5,6,7,8-tetrahydronaphthalen-2-yl)butane-1,4-dione] | 22 nM |
| O=C(CCC(=O)c1ncccc1Cl)c1ccc2c(c1)OCCO2 [Compound 767, 1-(3-Chloropyridin-2-yl)-4-(2,3-dihydrobenzo[b][1,4]dioxin-6-yl) butane-1,4-dione] | 2.16 nM |
